Source: paper PMC3034256 (Chemistry & biology, 2011)

Experiments:
panel of PTPs = experiment: Screen against a panel of PTPs at 10 µM; type: biochemical; conditions: 10 µM compound, pNPP, pH 7, 25 °C
Jurkat T cells [1] = experiment: TCR-mediated ERK1/2 activation in Jurkat T cells; type: cell-based; conditions: 2 h pretreatment (2 µM), 10 µg/mL anti-CD3
Jurkat T cells [2] = experiment: TCR-mediated tyrosine phosphorylation in Jurkat T cells; type: cell-based; conditions: 2 h pretreatment (2 µM; TTN 2–4 µM), 10 µg/mL anti-CD3

CO[C@H]([C@H](O)CC(=O)[C@@H](C)[C@@H](O)CC[C@@H](C)[C@@H]1O[C@]2(CC[C@@H](C)[C@H](CC[C@H](C)C(C)=O)O2)CC[C@@H]1C)[C@H](OC(=O)C[C@@H](O)C1=C(C)C(=O)OC1=O)C(C)C [TTM, tautomycin, reference compound]
inhibitory activity against the panel of PTPs (panel of PTPs): neither TTM nor its analogs exhibited any inhibitory activity | effect on TCR-mediated ERK1/2 activation (Jurkat T cells [1]): no appreciable change | effect on TCR-mediated tyrosine phosphorylation (Jurkat T cells [2]): had no effect
